Assay: log P by HPLC on reversed-phase columns (EEC directive 79/831 Annex V.A8)
Assay type: physicochemical
Conditions: acidic range pH 2.7, 0.1% aqueous formic acid/acetonitrile
Protocol: The log P values were measured according to EEC directive 79/831 Annex V.A8 by HPLC (High Performance Liquid Chromatography) on reversed-phase columns (C 18), using the method below:
The determination was carried out in the acidic range at pH 2.7 using the mobile phases 0.1% aqueous formic acid and acetonitrile; linear gradient from 10% acetonitrile to 95% acetonitrile.

Row | Structure (SMILES) | log P
1 | Cc1cc(C)c(C=C2C(=O)ON=C2c2ccccc2C(F)(F)F)c(C)c1 [Compound I-1] | 4.34
2 | Cc1cc(C)c(C=C2C(=O)ON=C2c2ccccc2OC(F)(F)F)c(C)c1 [Compound I-2] | 4.59
3 | Cc1cc(C)c(C=C2C(=O)ON=C2c2ccccc2[N+](=O)[O-])c(C)c1 [Compound I-3] | 3.76
4 | Cc1cccc(C)c1C=C1C(=O)ON=C1c1ccccc1[N+](=O)[O-] [Compound I-4] | 3.40
5 | Cc1cc(C)c(C=C2C(=O)ON=C2c2cccc(C)c2C)c(C)c1 [Compound I-8] | 4.68
6 | Cc1ccccc1C1=NOC(=O)C1=Cc1c(C)cccc1C [Compound I-9] | 3.95
7 | Cc1cccc(C2=NOC(=O)C2=Cc2c(C)cccc2C)c1C [Compound I-12] | 4.26
8 | Cc1cc(C)c(C=C2C(=O)ON=C2c2ccccc2)c(C)c1 [Compound I-13] | 4.01
9 | COc1cccc(OC)c1C1=NOC(=O)C1=Cc1c(C)cc(C)cc1C [Compound I-15] | 3.95
10 | COc1cccc(C2=NOC(=O)C2=Cc2c(C)cc(C)cc2C)c1OC [Compound I-16] | 4.08
11 | COc1ccc(F)cc1C1=NOC(=O)C1=Cc1c(C)cc(C)cc1C [Compound I-17] | 4.12
12 | COc1cccc(C2=NOC(=O)C2=Cc2c(C)cccc2C)c1OC [Compound I-20] | 3.73
13 | COc1ccc(F)cc1C1=NOC(=O)C1=Cc1c(C)cccc1C [Compound I-21] | 3.75
14 | Cc1cc(C)c(C=C2C(=O)ON=C2c2ccccc2I)c(C)c1 [Compound I-22] | 4.51
15 | Cc1cc(C)c(C=C2C(=O)ON=C2c2ccccc2F)c(C)c1 [Compound I-23] | 4.07
16 | CCOc1ccccc1C1=NOC(=O)C1=Cc1c(C)cc(C)cc1C [Compound I-26] | 4.42
17 | CCOc1ccccc1C1=NOC(=O)C1=Cc1c(C)cccc1C [Compound I-27] | 4.00
18 | Cc1cc(C)c(C=C2C(=O)ON=C2c2ccccc2Cl)c(C)c1 [Compound I-28] | 4.38
19 | Cc1cccc(C)c1C=C1C(=O)ON=C1c1ccccc1Cl [Compound I-29] | 3.97
20 | Cc1cc(C)c(C=C2C(=O)ON=C2c2ccccc2OCc2ccccc2)c(C)c1 [Compound I-30] | 4.86

Row | Structure (SMILES) | log P
21 | Cc1cccc(C)c1C=C1C(=O)ON=C1c1ccccc1OCc1ccccc1 [Compound I-31] | 4.51
22 | Cc1cc(C)c(C=C2C(=O)ON=C2c2ccccc2SC(F)F)c(C)c1 [Compound I-32] | 4.27
23 | Cc1cc(C)c(C=C2C(=O)ON=C2c2cccc(Cl)c2Cl)c(C)c1 [Compound I-33] | 4.80
24 | Cc1cccc(C)c1C=C1C(=O)ON=C1c1cccc(Cl)c1Cl [Compound I-34] | 4.31
25 | Cc1cc(C)c(C=C2C(=O)ON=C2c2ccc(Cl)cc2Cl)c(C)c1 [Compound I-35] | 4.94
26 | Cc1cc(C)c(C=C2C(=O)ON=C2c2cc(F)ccc2F)c(C)c1 [Compound I-36] | 4.12
27 | Cc1cccc(C)c1C=C1C(=O)ON=C1c1cc(F)ccc1F [Compound I-37] | 3.77
28 | Cc1cc(C)c(C=C2C(=O)ON=C2c2cc(F)ccc2Cl)c(C)c1 [Compound I-38] | 4.42
29 | Cc1cccc(C)c1C=C1C(=O)ON=C1c1cc(F)ccc1Cl [Compound I-39] | 3.96
30 | Cc1cc(C)c(C=C2C(=O)ON=C2c2cc(Cl)ccc2Cl)c(C)c1 [Compound I-40] | 4.71
31 | Cc1cc(C)c(C=C2C(=O)ON=C2c2cc(Br)ccc2Cl)c(C)c1 [Compound I-41] | 4.83
32 | Cc1cccc(C)c1C=C1C(=O)ON=C1c1cc(Br)ccc1Cl [Compound I-42] | 4.46
33 | Cc1cc(C)c(C=C2C(=O)ON=C2c2cc(Br)ccc2Br)c(C)c1 [Compound I-43] | 5.05
34 | Cc1cccc(C)c1C=C1C(=O)ON=C1c1cc(Br)ccc1Br [Compound I-44] | 4.57
35 | Cc1cc(C)c(C=C2C(=O)ON=C2c2cccc(C(F)(F)F)c2)c(C)c1 [Compound I-45] | 4.62
36 | Cc1cc(C)c(C=C2C(=O)ON=C2c2cccc([N+](=O)[O-])c2)c(C)c1 [Compound I-46] | 3.85
37 | Cc1cccc(C2=NOC(=O)C2=Cc2c(C)cc(C)cc2C)c1 [Compound I-47] | 4.45
38 | Cc1cc(C)cc(C2=NOC(=O)C2=Cc2c(C)cc(C)cc2C)c1 [Compound I-48] | 4.88
39 | Cc1cc(C)c(C=C2C(=O)ON=C2c2ccc(C)c(C)c2)c(C)c1 [Compound I-49] | 4.81
40 | Cc1ccc(C2=NOC(=O)C2=Cc2c(C)cccc2C)cc1C [Compound I-50] | 4.41

Row | Structure (SMILES) | log P
41 | Cc1cc(C)cc(C2=NOC(=O)C2=Cc2c(C)cccc2C)c1 [Compound I-51] | 4.49
42 | Cc1cccc(C)c1C=C1C(=O)ON=C1c1ccccc1 [Compound I-52] | 3.68
43 | COc1cc(OC)cc(C2=NOC(=O)C2=Cc2c(C)cc(C)cc2C)c1 [Compound I-53] | 4.21
44 | COc1ccc(C2=NOC(=O)C2=Cc2c(C)cc(C)cc2C)cc1OC [Compound I-54] | 4.09
45 | Cc1cc(C)c(C=C2C(=O)ON=C2c2cccc(F)c2)c(C)c1 [Compound I-55] | 4.15
46 | Cc1cc(C)c(C=C2C(=O)ON=C2c2cccc(Cl)c2)c(C)c1 [Compound I-56] | 4.48
47 | Cc1cc(C)c(C=C2C(=O)ON=C2c2ccc(Cl)c(Cl)c2)c(C)c1 [Compound I-57] | 4.95
48 | Cc1cc(C)c(C=C2C(=O)ON=C2c2cc(Cl)cc(Cl)c2)c(C)c1 [Compound I-58] | 5.01
49 | Cc1cc(C)c(C=C2C(=O)ON=C2c2ccc(C(F)(F)F)cc2)c(C)c1 [Compound I-59] | 4.62
50 | Cc1cc(C)c(C=C2C(=O)ON=C2c2ccc(OC(F)(F)F)cc2)c(C)c1 [Compound I-60] | 4.73
51 | Cc1cc(C)c(C=C2C(=O)ON=C2c2ccc(C(C)(C)C)cc2)c(C)c1 [Compound I-61] | 5.43
52 | Cc1cc(C)c(C=C2C(=O)ON=C2c2ccc(OC(C)C)cc2)c(C)c1 [Compound I-62] | 4.70
53 | Cc1cc(C)c(C=C2C(=O)ON=C2c2ccc(-c3ccccc3)cc2)c(C)c1 [Compound I-63] | 5.16
54 | Cc1cc(C)c(C=C2C(=O)ON=C2c2ccc(OCc3ccccc3)cc2)c(C)c1 [Compound I-64] | 5.01
55 | Cc1cc(C)c(C=C2C(=O)ON=C2c2ccc([N+](=O)[O-])cc2)c(C)c1 [Compound I-65] | 3.99
56 | Cc1ccc(C2=NOC(=O)C2=Cc2c(C)cc(C)cc2C)cc1 [Compound I-66] | 4.44
57 | COc1ccc(C2=NOC(=O)C2=Cc2c(C)cc(C)cc2C)cc1 [Compound I-67] | 4.00
58 | CCOc1ccc(C2=NOC(=O)C2=Cc2c(C)cc(C)cc2C)cc1 [Compound I-69] | 4.46

Same assay, conditions: reversed-phase HPLC column (C18), preparation examples, acidic range pH 2.7, formic acid, read-out: log P (HCOOH)

Row | Structure (SMILES) | chromatographic logP
59 | COc1ccccc1C1=NOC(=O)C1 [3-(2-methoxyphenyl)isoxazol-5(4H)-one] | 1.67
60 | O=C1CC(c2cccc(C(F)(F)F)c2)=NO1 [3-(3-trifluoromethylphenyl)isoxazol-5(4H)-one] | 2.4
61 | O=C1CC(c2ccc(F)cc2)=NO1 [3-(4-fluorophenyl)isoxazol-5(4H)-one] | 1.74
62 | Cc1cc(C)c(/C=C2\C(=O)ON=C2c2cccc(C(F)(F)F)c2)c(C)c1 [Compound 1-59, 4-(2,4,6-trimethylbenzylidene)-3-(3-trifluoromethylphenyl)-1,2-oxazol-5(4H)-one] | 4.62
63 | COc1ccccc1C1=NOC(=O)/C1=C\c1c(C)cccc1C [Compound I-18, 4-(2,6-dimethylbenzylidene)-3-(2-methoxyphenyl)-1,2-oxazol-5(4H)-one] | 3.69
64 | Cc1cc(C)c(/C=C2\C(=O)ON=C2c2ccc(F)cc2)c(C)c1 [Compound I-68, 4-(2,4,6-trimethylbenzylidene)-3-(4-fluorophenyl)-1,2-oxazol-5(4H)-one] | 4.08
65 | COC(=O)CC(=O)c1cccc(C(F)(F)F)c1 [methyl 3-trifluoromethylbenzoylacetate] | 2.57
